Laboratory results from patent publication US20190167676A1, “METHODS FOR IMPROVING RESISTANCE TO SKELETAL MUSCLE FATIGUE” (Cytokinetics, Inc., priority 2012, published 2019).

Tests used:
rat FDB muscle [1] = test: Isometric tension force/frequency in rat FDB muscle in vitro; conditions: 10 μM, FIG. 1
Method: Adult male Sprague-Dawley rats (Charles River) between 250 and 300 g were anesthetized with a mixture of isoflurane gas and oxygen and quickly euthanized by cardiac excision. Hind feet were quickly removed at the ankle and placed in oxygenated Krebs solution at 4° C. (composition: 1 mM NaH2PO4, 5 mM KCl, 2 mM CaCl2, 1 mM MgSO4, 137 mM NaCl, 11 mM glucose and 1 mM NaHCO3). Feet were then pinned out in fresh oxygenated Krebs buffer at room temperature and the skin from the sole of the foot removed with scissors. In rats, a small branch of the main flexor digitorum brevis (FDB) muscle extends from the heel of the foot to the little digit. This was dissected free with small scissors and the tendons at each end of the muscle were cut. The muscle was pinned out in Krebs solution and the surrounding fascia removed. Silk thread was tied with a small loop and then knotted on to the end of each tendon, creating a silk loop at each end of the muscle. This was then hooked on to the fixed lever arm and force transducer of an 801A in vitro analysis system (Aurora Scientific, Ontario, Canada) and perfused with Krebs solution at 30° C.
The effect of 10 μM of Compound A on the force/frequency relationship was measured.

rat FDB muscle [2] = test: Isometric fatigue protocol in isolated rat FDB muscle; conditions: 5 μM
Method: The isometric fatigue protocol was based on published studies (Germinario et al, 2004). Isolated rat FDB muscles were incubated at 4° C. with either 0.1% DMSO Krebs buffer or buffer containing 5 μM Compound A for 30 minutes. The tissues were then transferred to an isometric force transducer at 30° C. with the same concentration of DMSO or Compound A. Muscles were stimulated via field electrodes with supra maximal voltage to tetanus (120 Hz stimulation, 1 ms pulses, 350 ms duration) every minute and the length adjusted to achieve maximal tension development (Lo) which was recorded. The stimulation frequency was adjusted to achieve 50% of maximal force for each tissue: The average stimulation frequency required to achieve FMax 50% (mean +/− sd) for 0.1% DMSO was: 32.4 +/− 3.3 Hz, and for 5 μM Compound A it was 20.5 +/− 4.9 Hz. The muscles were then stimulated every six seconds for 15 minutes with field electrodes (1 ms stimulus, 350 ms trains) which produced a rapid drop in developed force over the course of 900 seconds for both the control fibers and Compound A fibers, with the control group showing a greater and more rapid drop in tension than the Compound A group.

rat EDL muscle [3] = test: Fatigue in rat EDL muscle in situ; format: in vivo
From the text: Rats were placed under anesthesia using isoflurane and the skin around the experimental leg was removed. The distal end of the EDL muscle and its associated tendon were then isolated. The rat was then placed on the platform of an Aurora in-situ muscle analysis rig (806C), maintained at body temperature via a circulating water system. The knee was immobilized in a clamp between two sharpened screws and the distal tendon cut and tied to the arm of a force transducer (Aurora Scientific, Ontario, Canada) using a silk suture. The muscle was stimulated directly via the peroneal nerve. For isolation of the nerve, a 1 cm incision was made at the upper thigh and the overlying gastrocnemius muscle was cut to expose an approximate 5 mm stretch of the peroneal nerve. […] Muscle contractile properties were assessed by applying an electrical current to the nerve and recording the force generated by the muscle via a servomotor. […]
With the rat in situ EDL muscle preparation described in Example 3, a fatiguing protocol was utilized where muscle was stimulated for 600 seconds. […] To elicit muscle fatigue, the EDL muscle was stimulated with 350 msec electrical trains every 3 seconds for ten minutes at a frequency producing an initial force equal to 50% of maximal (FMax50) as determined by the force-frequency relationship for each animal.

rat EDL muscle [4] = test: Fatigue in rat EDL muscle following femoral artery ligation (FAL); format: in vivo; conditions: for average stimulation frequency for force production similar to pre-dose: vehicle 30 Hz
From the text: Rats were placed under anesthesia using isoflurane and the skin around the experimental leg was removed. The distal end of the EDL muscle and its associated tendon were then isolated. The rat was then placed on the platform of an Aurora in-situ muscle analysis rig (806C), maintained at body temperature via a circulating water system. The knee was immobilized in a clamp between two sharpened screws and the distal tendon cut and tied to the arm of a force transducer (Aurora Scientific, Ontario, Canada) using a silk suture. The muscle was stimulated directly via the peroneal nerve. For isolation of the nerve, a 1 cm incision was made at the upper thigh and the overlying gastrocnemius muscle was cut to expose an approximate 5 mm stretch of the peroneal nerve. This was then dissected free of surrounding connective tissue and a pair of stainless steel needle electrodes (0.10 mm) were hooked around the exposed nerve. Muscle contractile properties were assessed by applying an electrical current to the nerve and recording the force generated by the muscle via a servomotor. The muscle length was adjusted to produce the maximum isometric force (Lo) after sub-maximal stimulation (30 Hz, 1 ms pulses, 350 ms train duration). Once Lo had been established, the nerve was stimulated every 2 minutes with a 30 Hz train (1 ms stimuli, 350 ms duration) for the course of the experiment. This preparation was stable for 4-6 hours.
With the rat in situ EDL muscle preparation described in Example 3, a fatiguing protocol was utilized where muscle was stimulated for 600 seconds. Vehicle-treated muscle was electrically stimulated at 30 Hz while the stimulation frequency was reduced in Compound A treated rats to ensure similar force production to pre-dose levels, prior to femoral artery ligation (average stimulation frequency of 29 and 26Hz, for 0.5 mg/kg and 1 mg/kg Compound A, respectively). This protocol produced a robust and reproducible fatigue in EDL muscle following femoral artery ligation, with a transient increase to 136.0±6.8% of initial force over the first 90-100 seconds, followed by a rapid drop in force before stabilization at approximately 40% of initial force. The initial rise in tension is believed to be due to Pi-induced increases in free intracellular Ca^2+ due to inhibition of sarco(endo)plasmic reticulum Ca^2+-ATPases (SERCAs) pumping into the SR (Allen, Physiol Rev 88:287-332, 2008). Following ligation of the femoral artery (R. A. Challiss et al. Biochem J. 1986 Dec. 1; 240(2):395-401) Compound A was administered in solution (50% PEG300/10% EtOH/40% Cavitron formulation) via a jugular vein catheter as a single slow bolus over a 2 min period.
Time for force to decrease to 50% of initial force was lengthened from 259±30 seconds to […] (P<0.0001, T-test).

[5] = molecular target: T1, myofibrils from slow skeletal muscle (Homo sapiens, UniProt P63316); conditions: cited from earlier work
T1 construct: from tissue; host or cells: slow skeletal muscle myofibrils

[6] = test system: skinned human vastus lateralis fast fibers; conditions: skinned fast fibers from muscle biopsies; cited from earlier work
[7] = stimulated every six seconds for 15 minutes

## C#Cc1cnc2nc(O)n(C(CC)CC)c2n1 [Compound A, 6-ethynyl-1-(pentan-3-yl)-1H-imidazo[4,5-b]pyrazin-2-ol]
Rat FDB muscle [1]
  sub-maximal force development (force/frequency relationship): increased sub-maximal force development
Rat FDB muscle [2]
  average stimulation frequency required to achieve FMax 50% (mean +/- sd): 20.5 +/− 4.9 Hz
Rat FDB muscle [2]; [7]
  force at 900 seconds, % of fMax: 28.4±1.2 % f Max
  force at 900 seconds, % of initial tension: 53.9±2.1 % of initial tension
Rat EDL muscle [3]; 1 mg/kg via duodenal cannula, vehicle 30 Hz
  average stimulation frequency for force production similar to pre-dose: approximately 26 Hz
Rat EDL muscle [3]; 1 mg/kg, 600 seconds protocol, FIG. 4
  EDL muscle fatigue: decreased rat EDL muscle fatigue in situ
Rat EDL muscle [4]; 0.5 mg/kg
  average stimulation frequency for force production similar to pre-dose: 29 Hz
Rat EDL muscle [4]; 1 mg/kg
  average stimulation frequency for force production similar to pre-dose: 26 Hz
Rat EDL muscle [4]; FAL rats
  time of rise to initial increase in force: 160 to 170 s
Rat EDL muscle [4]; FAL rats vs vehicle, FIG. 5
  time to fatigue and tension-generating capacity: dose-dependent increase
Rat EDL muscle [4]; FAL rats, jugular vein bolus
  initial increase in force: 156.3±10.4 % of initial force
Rat EDL muscle [4]; FAL rats, vehicle 259±30
  time for force to decrease to 50% of initial force: 752 ± 64 s
[5]
  effect in myofibrils: little or no effect
[6]
  force-calcium relationship: dramatically left-shifts
